Values of other authors as cited in patent US7816516B2, “Conjugates of hydroxyalkyl starch and an active agent” (Fresenius Kabi Deutschland GmbH, priority 2001, dated 2010).

What was measured:
[1] = in vivo
[2] = isolated haemoglobin; dimers eliminated via the kidneys

Molecule | portion of renal elimination [1] | biological half-life in the blood circulation [2]
CO[C@@]12[C@H](COC(N)=O)C3=C(C(=O)C(C)=C(N)C3=O)N1C[C@@H]1N[C@@H]12 [mitomycin C] | approximately 18% | 
haemoglobin |  | approx. 1 hour
